In patent US5462926A (Biomeasure, Inc., priority 1993, dated 1995):
Where a SMILES comes first, the peptide text is derived from it. Bridges are numbered along the chain shown (N, C = ends). [ ]: non-standard residue; d: D form. 2Nal = N[C@@H](Cc1ccc2ccccc2c1)C(=O)O; d2Nal = N[C@H](Cc1ccc2ccccc2c1)C(=O)O

How the values were obtained:
[1] = target: T1, GRP receptors on rat pancreatic acini (Rattus norvegicus, UniProt P52500); experiment: Binding of 125I-[Tyr4]bombesin to pancreatic acini; settings: read-out: Ki 125I-[Tyr4]Bn Binding, GRP Receptor, Rat Pancreatic Acini; Ki by Cheng method
T1 construct: from tissue; host or cells: dispersed pancreatic acini
T1 sequence (P52500 whole entry): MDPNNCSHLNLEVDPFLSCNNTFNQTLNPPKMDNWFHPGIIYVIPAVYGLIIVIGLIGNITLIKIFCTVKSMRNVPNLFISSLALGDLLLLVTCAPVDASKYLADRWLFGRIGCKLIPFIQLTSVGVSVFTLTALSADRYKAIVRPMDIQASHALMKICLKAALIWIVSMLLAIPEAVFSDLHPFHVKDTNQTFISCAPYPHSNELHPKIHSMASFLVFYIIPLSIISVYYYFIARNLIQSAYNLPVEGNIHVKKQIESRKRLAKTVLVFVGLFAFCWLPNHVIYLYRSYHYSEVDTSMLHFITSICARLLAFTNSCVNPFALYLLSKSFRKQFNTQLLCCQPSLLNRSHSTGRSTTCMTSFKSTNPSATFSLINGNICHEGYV
Source text: (§7) Nonsaturable binding was<10% of total binding in all experiments.

[2] = test system: GRP receptors on rat pancreatic acini; experiment: Binding of 125I-[Tyr4]bombesin to pancreatic acini; settings: NMB-R transfected cells vs GRP-R on rat pancreatic acini
Source text: as §7

[3] = test system: endothelin-1-stimulated increases in [3H]IP; experiment: Endothelin-1-stimulated [3H]IP in C-6 glioblastoma cells; format: cell-based, rat
Method: (§1) Total phosphoinositides in C-6 cells and in NMB-R transfected cells were determined as described previously, with minor modifications [Benya, R. V. et al. Mol. Pharmacol. 42:1058 (1992); and Wang, L-H. et al. Biochem. Jo 286:641 (1992)]. Cells were grown to confluence in 24-well plates and then loaded with 100 μCi/ml myo-[2-^3 H]inositol in Dulbecco's modified essential medium with 2% fetal bovine serum at 37° C. for 48 hrs. Cells were washed and incubated in phosphoinositide buffer (standard buffer additionally containing 10 mM LiCl, 20 mM HEPES, 2 mM CaCl2, 2% BSA, and 1.2 mM MgSO4) for 15 min and then for 60 min at 37° C. with agonists at various concentrations or with 3 nM NMB (a half-maximal effective concentration) and possible antagonists at different concentrations. Reactions were halted using ice-cold 1% HCl in methanol, and the inositol phosphates (IP) were isolated as described previously [Bologna, M. et al. Cancer 63:1714 (1989); and Endo, T. et al. J. Endocrinolo 131:313 (1991)]. Briefly, after loading of the anion exchange column, free [^3 H]glycerophosphorylinositol was removed by washing with 5 mM disodium tetraborate in 60 mM sodium formate. Total [^3 H]inositol phosphates were then eluted using 100 mM formic acid in 1.0M ammonium formate as described previously [Benya, R. V. et al. Mol. Pharmacol. 42:1058 (1992); and Wang, L-H. et al. Biochem. J. 286:641 (1992 )].
(§2) without SSoctapeptide analog added. C6 glioblastoma cells (50,000
(§3) cells/well) were incubated with myo[2^3 H]inositol for two days,
(§4) washed and then incubated with or without the indicated peptides for 60
(§5) minutes at 37° C. in phosphoinositide buffer containing 10 mM LiCl
(§6) as described in METHODS. [^3 H]IP was measured using Dowex AG1X8 anio

mu opioid receptors = target: T2, mu opioid receptors (Rattus norvegicus, UniProt P33535); experiment: Mu opioid membrane assay, [3H]DAGO, rat forebrain membranes; format: binding; settings: rat forebrain membranes; read-out: affinity, inhibition of [3H]DAGO binding to mu opioid receptors
T2 construct: rat forebrain (TRH, mu and delta opioid membrane assays); from tissue; host or cells: rat forebrain membranes
T2 sequence (P33535 whole entry): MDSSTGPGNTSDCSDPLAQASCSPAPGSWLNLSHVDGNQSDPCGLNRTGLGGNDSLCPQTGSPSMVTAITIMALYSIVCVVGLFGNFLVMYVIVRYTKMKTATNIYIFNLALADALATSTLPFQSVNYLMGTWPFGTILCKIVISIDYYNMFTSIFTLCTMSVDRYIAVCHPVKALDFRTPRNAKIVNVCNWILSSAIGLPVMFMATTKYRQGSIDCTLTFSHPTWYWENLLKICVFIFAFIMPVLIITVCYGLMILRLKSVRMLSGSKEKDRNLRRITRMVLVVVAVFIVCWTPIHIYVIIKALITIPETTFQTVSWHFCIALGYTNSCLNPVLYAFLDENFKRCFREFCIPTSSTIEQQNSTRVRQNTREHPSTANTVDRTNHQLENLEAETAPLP

CCKA receptors = target: T3, CCKA receptors (Rattus norvegicus, UniProt P30551); experiment: CCKA receptor assay, 125I-CCK-8, rat pancreatic membranes; format: binding
T3 construct: rat pancreas (CCKA receptor assay); from tissue; host or cells: rat pancreas membranes
T3 sequence (P30551 whole entry): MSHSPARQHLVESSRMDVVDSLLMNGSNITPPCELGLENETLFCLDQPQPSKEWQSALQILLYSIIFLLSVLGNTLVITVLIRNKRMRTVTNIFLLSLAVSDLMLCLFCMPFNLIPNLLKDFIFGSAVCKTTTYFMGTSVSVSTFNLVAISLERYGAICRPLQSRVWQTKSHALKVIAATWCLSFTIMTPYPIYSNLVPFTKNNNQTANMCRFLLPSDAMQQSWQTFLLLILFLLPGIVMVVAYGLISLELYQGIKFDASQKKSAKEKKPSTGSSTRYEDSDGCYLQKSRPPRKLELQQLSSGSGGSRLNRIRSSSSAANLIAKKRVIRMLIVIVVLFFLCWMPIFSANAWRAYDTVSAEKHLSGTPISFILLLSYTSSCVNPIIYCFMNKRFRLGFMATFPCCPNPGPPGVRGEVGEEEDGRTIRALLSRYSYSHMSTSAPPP

CCKB = target: T4, CCKB (Rattus norvegicus, UniProt P30553); experiment: CCKB membrane receptor assay, rat cerebral cortex; format: binding; settings: 1 μM
T4 construct: rat cerebral cortex (CCKB, PYY, neurotensin,; from tissue; host or cells: rat cerebral cortex membranes
T4 sequence (P30553 whole entry): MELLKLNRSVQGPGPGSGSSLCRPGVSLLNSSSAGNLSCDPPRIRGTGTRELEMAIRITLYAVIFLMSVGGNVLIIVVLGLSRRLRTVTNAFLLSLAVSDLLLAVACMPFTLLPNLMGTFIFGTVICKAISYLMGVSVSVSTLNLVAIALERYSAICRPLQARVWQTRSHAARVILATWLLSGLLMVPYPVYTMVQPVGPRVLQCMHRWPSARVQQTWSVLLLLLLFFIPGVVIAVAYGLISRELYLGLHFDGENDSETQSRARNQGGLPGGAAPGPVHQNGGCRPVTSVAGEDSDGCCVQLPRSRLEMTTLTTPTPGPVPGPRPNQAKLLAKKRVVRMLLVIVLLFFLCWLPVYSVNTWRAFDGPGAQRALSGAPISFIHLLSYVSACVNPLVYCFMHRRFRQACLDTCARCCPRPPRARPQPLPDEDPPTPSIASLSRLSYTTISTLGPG

PYY receptor = experiment: PYY membrane receptor assay, rat cerebral cortex; format: binding; settings: 1 μM
bradykinin1 = experiment: Bradykinin membrane receptor assay, [3H]bradykinin; format: binding; settings: 1 μM
α1-adrenergic receptor = experiment: α1-adrenergic membrane receptor assay, rat cerebral cortex; format: binding; settings: 1 μM
α2-adrenergic receptor = experiment: α2-adrenergic membrane receptor assay, rat cerebral cortex; format: binding; settings: 1 μM
dopamine2 receptor = target: T5, dopamine2 receptor (Rattus norvegicus, UniProt P61169); experiment: Dopamine2 membrane receptor assay, rat corpus striatum; format: binding; settings: 1 μM
T5 construct: rat corpus striatum (dopamine1 and dopamine2 membrane receptor assays); from tissue; host or cells: rat corpus striatum membranes
T5 sequence (P61169 whole entry): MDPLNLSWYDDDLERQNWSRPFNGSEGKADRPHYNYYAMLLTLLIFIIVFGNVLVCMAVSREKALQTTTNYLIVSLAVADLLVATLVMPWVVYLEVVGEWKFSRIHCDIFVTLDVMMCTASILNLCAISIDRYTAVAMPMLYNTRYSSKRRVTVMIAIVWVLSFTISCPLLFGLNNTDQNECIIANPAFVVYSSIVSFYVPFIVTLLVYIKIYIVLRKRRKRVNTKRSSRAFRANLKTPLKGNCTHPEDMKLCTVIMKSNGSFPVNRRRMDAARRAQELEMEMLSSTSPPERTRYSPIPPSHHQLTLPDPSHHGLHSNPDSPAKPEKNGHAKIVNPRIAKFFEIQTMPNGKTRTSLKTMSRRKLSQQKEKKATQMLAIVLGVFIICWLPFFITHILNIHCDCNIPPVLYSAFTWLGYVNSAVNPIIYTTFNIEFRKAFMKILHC

histamine H1 receptor = target: T6, histamine H1 receptor (Cavia porcellus, UniProt P31389); experiment: Histamine H1 membrane receptor assay, guinea pig cerebral; format: binding; settings: 1 μM
T6 construct: guinea pig cerebral (N1, histamine H1, and sigma opioid membrane receptor assays); from tissue; host or cells: guinea pig cerebral membranes
T6 sequence (P31389 whole entry): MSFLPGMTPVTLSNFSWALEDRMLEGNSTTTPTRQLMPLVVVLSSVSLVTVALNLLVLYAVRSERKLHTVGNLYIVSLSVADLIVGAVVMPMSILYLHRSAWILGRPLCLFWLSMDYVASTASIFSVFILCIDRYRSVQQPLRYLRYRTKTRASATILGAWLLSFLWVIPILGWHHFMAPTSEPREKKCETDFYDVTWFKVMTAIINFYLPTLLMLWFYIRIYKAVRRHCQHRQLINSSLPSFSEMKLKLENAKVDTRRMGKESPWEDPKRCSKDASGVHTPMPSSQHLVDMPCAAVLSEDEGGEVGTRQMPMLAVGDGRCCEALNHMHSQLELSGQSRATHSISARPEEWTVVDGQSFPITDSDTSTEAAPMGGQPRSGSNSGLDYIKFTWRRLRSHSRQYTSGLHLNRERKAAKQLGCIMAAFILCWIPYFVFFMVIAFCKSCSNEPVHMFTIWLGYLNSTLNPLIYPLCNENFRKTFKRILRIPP

adenosine1 receptor = target: T7, adenosine1 receptor (Rattus norvegicus, UniProt P25099); experiment: Adenosine membrane receptor assay, rat cerebral cortex; format: binding; settings: 1 μM
T7 construct: rat cerebral cortex (CCKB, PYY, neurotensin, α1 -adrenergic, α2 -adrenergic, muscarinic cholinergic, neural benzodiazepine, peripheral benzodiazepine, adenosine,; from tissue; host or cells: rat cerebral cortex membranes
T7 sequence (P25099 whole entry): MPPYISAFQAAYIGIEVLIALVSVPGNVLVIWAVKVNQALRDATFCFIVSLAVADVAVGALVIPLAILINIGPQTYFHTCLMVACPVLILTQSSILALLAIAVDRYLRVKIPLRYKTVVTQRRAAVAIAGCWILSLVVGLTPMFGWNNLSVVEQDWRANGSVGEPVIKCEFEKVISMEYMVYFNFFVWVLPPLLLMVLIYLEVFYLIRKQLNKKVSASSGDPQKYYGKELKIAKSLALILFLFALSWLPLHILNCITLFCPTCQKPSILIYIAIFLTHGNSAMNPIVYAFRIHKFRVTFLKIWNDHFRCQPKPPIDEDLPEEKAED

[4] = target: T8, N-methyl D-aspartate receptors (Rattus norvegicus, UniProt P35439); experiment: N-methyl-D-aspartate membrane receptor assay, rat cerebral cortex; format: binding; settings: 1 μM
T8 construct: from tissue; host or cells: rat cerebral cortex membranes

GRP receptor = GRP receptor (Rattus norvegicus, UniProt P52500); experiment: GRP membrane receptor assay, 125I-[Tyr4]Bn, AR 42J cell membranes; format: binding; set-up: endogenous in cells; host or cells: rat AR 42J pancreatic acinar tumor cell membranes; settings: read-out: affinity, 125I-[Tyr4]Bn, AR 42J Cell Membranes (GRP receptors); Cheng method; unit inferred
GRP receptor, sequence (P52500 whole entry): as the sequence (P52500 whole entry) above

NMB receptor [5] = target: T9, NMB receptor (Rattus norvegicus, UniProt P24053); experiment: [3H]IP in C-6 glioblastoma cells (alone or NMB-stimulated); format: cell-based; set-up: a full length NMB-preferring bombesin receptor clone generated from rat esophagus; expressed in transfected cells
T9 sequence (P24053 1-390): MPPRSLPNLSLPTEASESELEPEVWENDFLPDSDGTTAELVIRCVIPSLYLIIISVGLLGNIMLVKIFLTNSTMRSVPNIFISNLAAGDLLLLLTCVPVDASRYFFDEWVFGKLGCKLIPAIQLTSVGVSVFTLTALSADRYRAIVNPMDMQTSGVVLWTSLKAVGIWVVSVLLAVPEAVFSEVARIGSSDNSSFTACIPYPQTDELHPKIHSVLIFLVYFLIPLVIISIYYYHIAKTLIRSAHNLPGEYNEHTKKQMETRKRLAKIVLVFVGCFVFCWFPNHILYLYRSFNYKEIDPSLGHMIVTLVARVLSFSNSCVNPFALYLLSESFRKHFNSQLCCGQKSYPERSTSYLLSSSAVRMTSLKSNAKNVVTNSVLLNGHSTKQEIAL
Method: as §1, §2, §3, §4, §5, §6

NMB receptor [6] = target: T9, NMB receptor; experiment: NMB membrane receptor assay, 125I-NMB, rat olfactory bulb membranes; format: binding; set-up: Membranes were prepared from rat olfactory bulb (NMB membrane receptor assay); from tissue; host or cells: rat olfactory bulb membranes

CC(C)[C@@H]1NC(=O)[C@H](CCCCN)NC(=O)[C@@H](Cc2c[nH]c3ccccc23)NC(=O)[C@H](Cc2ccc(O)cc2)NC(=O)[C@@H](NC(=O)[C@H](N)Cc2ccc3ccccc3c2)CSSC[C@@H](C(=O)N[C@@H](Cc2ccc3ccccc3c2)C(N)=O)NC1=O [Analog #1, H2 -D-Nal-Cys-Tyr-D-Trp-Lys-Val-Cys-Nal-NH2] (H-[d2Nal]CY[dW]KVC[2Nal]-NH2; disulfide 2-7)
Ki [1]: 18300 ± 2110 nM
fold greater affinity for NMB than GRP receptors [2]: 84 fold
fold greater affinity for NMB than GRP receptors ([2]; listed as cyclo SS-octa): 100 fold
[3H]IP with ET-1 (0.1 nM) ([3]; analog 10 μM, ET-1 alone 11.0 ± 2.1): 10.9 ± 1.8 dpm × 10^3
effect on endothelin-1-stimulated increases in [3H]IP in C-6 cells ([3]; listed as Cycle SS-octa): did not inhibit
effect on endothelin-1-stimulated increases in [3H]IP in C-6 cells ([3]; listed as cyclo SS octa): no effect
Ki (mu opioid receptors): 430 ± 130 nM
inhibition of binding to CCKA receptors (CCKA receptors; 1 μM): did not inhibit binding
Ki (CCKA receptors; rat pancreatic membranes, read-out: affinity, inhibition of 125I-CCK-8 binding to CCKA receptors): 5537 ± 7 nM
inhibition of binding to CCKB receptors (CCKB): did not inhibit binding
inhibition of binding to PYY receptors (PYY receptor): did not inhibit binding
inhibition of binding to bradykinin1 receptors (bradykinin1): did not inhibit binding
inhibition of binding to α1-adrenergic receptors (α1-adrenergic receptor): did not inhibit binding
inhibition of binding to α2-adrenergic receptors (α2-adrenergic receptor): did not inhibit binding
inhibition of binding to dopamine2 receptors (dopamine2 receptor): did not inhibit binding
inhibition of binding to histamine H1 receptors (histamine H1 receptor): did not inhibit binding
inhibition of binding to adenosine1 receptors (adenosine1 receptor): did not inhibit binding
inhibition of binding to N-methyl D-aspartate receptors [4]: did not inhibit binding
Ki (GRP receptor): 2870 ± 520 nM
effect on NMB-stimulated increases in [3H]IP in C-6 cells (NMB receptor [5]): inhibited
[3H]IP, no peptide added (NMB receptor [5]; analog 10 μM, 60 min 37° C., control 7.2 ± 1.0): 7.4 ± 1.3 dpm × 10^3
[3H]IP with NMB (10 nM) (NMB receptor [5]; analog 10 μM, NMB alone 21.0 ± 1.8): 7.5 ± 1.0 dpm × 10^3
Ki (NMB receptor [6]; Cheng method, unit inferred, read-out: affinity, 125I-NMB, Rat Olfactory bulb membranes (neuromedin B receptors)): 43 ± 9 nM
fold greater affinity for NMB receptors than mu opioid receptors (NMB receptor [6]; membranes, Table 4): 10 fold
